Test [1] has as its system C57/BL6 mice fed a high fat diet. Briefly: Serum total and HMW adiponectin in high fat diet mice after acute peptide injection. The conditions noted are these: HFD mice, 10 mg/kg i.p.; for HMW form of adiponectin in serum: normalized to corresponding cargo peptide. It is filed as in vivo, mouse. The method, then:
(§1) All experimental protocols were approved by the Committee on the Use of Live Animals for Teaching and Research of the University of Hong Kong and carried out in accordance with ARRIVE (Animal Research: Reporting of In Vivo Experiments) as well as institutional guidelines for the care and use of laboratory animals. Mice of the C57BL/6J background were housed in a room under controlled temperature (23±1° C.) with 12 hour light-dark cycles and free access to water and food. Mice were fed with either standard chow (STC; 3.07 kcal/g, LabDiet 5053, Purina Mills, Richmond, Ind., USA) or high-fat diet (HFD; 4.73 kcal/g containing 45% fat, 20% protein and 35% carbohydrate, D12451, Research diet, N.J., USA) starting from four-weeks old.
Immunoprecipitation and Western blotting studies were performed on serum adipose tissue samples obtained from mice as described above in Example 2. The serum was collected 24 hours after injection.
Mice were administered intraperitoneally with the peptides described in Table 2 (10 mg/kg body weight for acute studies at 16-weeks old or 5 mg/kg/day for four-week chronic treatment at 12-weeks old). Body weights of the animals were monitored on a weekly basis. Fasting blood glucose was determined after 16-hours food starvation (from 6:00 pm to 10:00 am) by a Accu-Check Advantage II Glucometer (Roche Diagnostics Mannheim, Germany). Fasting body fat mass was determined by the minispec Body Composition Analyzer (Bruker Optics Inc., Tex., USA). Circulating and tissue contents of lipids, including triglycerides and total cholesterols, were analyzed using LiquiColor® Triglycerides and Stanbio Cholesterol assay kits, respectively. Serum adiponectin concentrations were determined with an in-house ELISA kit as described (Wang et al., 2006 J Biol Chem 281: 16391-16400). Serum insulin levels were measured with an in-house mouse insulin ELISA kit (Cat No. 32100, http://www.pharma.hku.hk/sweb/antibody/ELISA.php). Homeostatic Model Assessment of […]

In test [2] the target is T1, ERp44-adiponectin interaction (Mus musculus, UniProt Q9D1Q6).
T1 construct: from tissue; host or cells: adipose tissue of C57BL/6J mice on a high-fat diet, treated i.p. with the peptides
T1 sequence (Q9D1Q6 30-406): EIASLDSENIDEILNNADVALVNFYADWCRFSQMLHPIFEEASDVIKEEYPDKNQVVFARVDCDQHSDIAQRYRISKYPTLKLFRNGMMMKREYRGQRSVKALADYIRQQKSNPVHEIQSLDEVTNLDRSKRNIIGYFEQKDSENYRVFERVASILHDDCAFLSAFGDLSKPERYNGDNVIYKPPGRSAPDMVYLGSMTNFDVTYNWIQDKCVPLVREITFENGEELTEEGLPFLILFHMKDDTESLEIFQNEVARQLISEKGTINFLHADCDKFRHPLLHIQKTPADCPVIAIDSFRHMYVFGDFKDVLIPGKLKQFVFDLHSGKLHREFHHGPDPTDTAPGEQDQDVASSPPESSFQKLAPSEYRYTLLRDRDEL
In words: ERp44-adiponectin interaction in mouse adipose tissue lysates by co-immunoprecipitation. It is filed as in vivo. The conditions noted are these: HFD mice. On the procedure:
(§2) Cells or adipose tissues were washed with phosphate buffer (137 mM NaCl, 2.7 mM KCl, 4.3 mM Na2HPO4, 1.47 mM KH2PO4, pH 7.4) and then solubilized in lysis buffer (25 mM Tris-HCl pH 7.5, 150 mM NaCl, 5 mM NaF, 1% sodium deoxycholate, 1% Nonidet P-40, 1% Triton X-100 plus protease inhibitor mixtures). Equal amounts of lysates (100 μg) were precleared with protein G (Thermo Fisher Scientific, Waltham, Mass., USA) and incubated overnight with specific antibodies at 4° C. with shaking.
(§3) After incubating with protein G for another four hours, the immune-complexes were precipitated by low-speed centrifugation, washed three times with lysis buffer, and eluted in SDS-PAGE sample buffer (50 mM Tris-HCl pH 6.8, 1% SDS, 5% glycerol, 3% β-mercaptomethanol, 0.01% bromophenal blue) or 0.1 M glycine HCl (pH 3.0) and then diluted with non-reducing sample buffer (1% SDS, 5% glycerol, 10 mM Tris-HCl pH6.8) for analyzing adiponectin monomers and oligomers by Western blotting.
Cell lysates, media or serum samples were incubated with non-reducing sample buffer at room temperature for 10 minutes and then separated by 4-20% gradient SDS-PAGE. […] Protein bands were quantified by ImageJ and intensities were compared. […]

A further test concerns 3T3-L1 adipocytes. In words: Adiponectin levels and oligomeric distribution in conditioned media and cell lysate of peptide-treated adipocytes (Western blotting). The conditions noted are these: for HMW adiponectin level in conditioned media / trimeric adiponectin level in conditioned media / hexamer adiponectin level in conditioned media: non-reducing SDS-PAGE; for amount of HMW adiponectin in the cell lysate / sub-population of the hexametric adiponectin in the cell lysate: compared to IgM-derived cargo peptides. It is filed as cell-based, murine. On the procedure:
3T3-L1 cells (ATCC #CL-173, Manassas, Va., USA) were cultured in Dulbecco's Modified Eagle Medium (DMEM) supplemented with 10% fetal bovine serum (FBS) and 1% penicillin-streptomycin-fungisone (PSF) at 37° C. and under 5% CO2 95% humidified air. For differentiation, the confluent 3T3-L1 cultures were supplemented with 10 μg/ml insulin, 0.25 μM dexamethasone and 0.5 mM isobutylmethylxanthine for two days, followed by incubation with 10 μg/ml insulin in the culture medium for another two days. Subsequently, cells were incubated in DMEM with 10% FBS that was changed every two days. Peptide treatment (200 nM in FBS-free medium) was performed in fully differentiated 3T3-L1 adipocyte cultures. After incubation for 24 h, cell lysates and the conditioned medium were collected for subsequent analyses.
as §2, §3
Cell lysates, media or serum samples were incubated with non-reducing sample buffer at room temperature for 10 minutes and then separated by 4-20% gradient SDS-PAGE. After transferring to polyvinylidene difluoride (PVDF) membranes, immunoblotting was performed using an in-house antibody against murine adiponectin developed by Antibody and Immunoassay Services, HKU (http://www.pharma.hku.hk/sweb/antibody/PolyclonalAntibodyCont.php?polyclonal_no=60 0005), or antibodies against ERp44 (Santa Cruz Biotechnology, Santa Cruz, Calif.), DsbA-L (Abcam, Cambridge, Mass., USA). Protein bands were quantified by ImageJ and intensities were compared. All experiments were repeated at least six times.
In general terms: A western blot detects proteins with antibodies after separation by electrophoresis.

The test system of test [3] is C57/BL6 mice fed a standard chow diet (STC) or high fat diet (HFD). In words: Four-week chronic peptide treatment of mice on STC or HFD: insulin sensitivity and energy homeostasis. It is filed as in vivo, mouse. The conditions noted are these: 5 mg/kg/day i.p., four weeks; for HFD-induced hyperglycemia (fasting glucose levels): 16-hours fasting. The method, then:
as §1
Mice were administered intraperitoneally with the peptides described in Table 2 (10 mg/kg body weight for acute studies at 16-weeks old or 5 mg/kg/day for four-week chronic treatment at 12-weeks old). Body weights of the animals were monitored on a weekly basis. Fasting blood glucose was determined after 16-hours food starvation (from 6:00 pm to 10:00 am) by a Accu-Check Advantage II Glucometer (Roche Diagnostics Mannheim, Germany). Fasting body fat mass was determined by the minispec Body Composition Analyzer (Bruker Optics Inc., Tex., USA). Circulating and tissue contents of lipids, including triglycerides and total cholesterols, were analyzed using LiquiColor® Triglycerides and Stanbio Cholesterol assay kits, respectively. Serum adiponectin concentrations were determined with an in-house ELISA kit as described (Wang et al., 2006 J Biol Chem 281: 16391-16400). Serum insulin levels were measured with an in-house mouse insulin ELISA kit (Cat No. 32100, http://www.pharma.hku.hk/sweb/antibody/ELISA.php). Homeostatic Model Assessment of
Insulin Resistance (HOMA-IR) was calculated as fasting insulin (μU/ml)×fasting glucose (mmol/L)/22.5 for comparison as described (Xu et al., 2013). All results were compared between mice treated with control and CPP peptides.

Test [4] addresses T2, Recombinant mouse ERp44 (murine ERp44 without the signal sequence, monomeric fraction) (mouse, UniProt Q9D1Q6 30-406).
T2 construct: mature; Cloned into pET28b at the NheI and XhoI sites and expressed in E. coli; The monomer fraction from Superdex-200 was used; Free ERp44 is observed at 46,074 amu in ESI-MS; also called recombinant ERp44
T2 sequence (looked up): T1 sequence (Q9D1Q6 30-406)
Briefly: ESI-MS, recombinant mouse ERp44 43 uM with 430 uM peptide, 4 days.

Test [5] addresses T2, Recombinant mouse ERp44 (murine ERp44 …). Briefly: ESI-MS of ERp44 (43 uM) incubated with 10-fold excess peptide (430 uM), 4 days, pH 6.5; disulfide-linked complex.
The mark [6] stands for this setting: serum 24 hours after injection, vs corresponding cargo peptide only group.
Where [7] appears, read: 200 nM peptide, 24 h, cell lysate.
The mark [8] stands for this setting: 200 nM peptide, 24 h, conditioned media, vs corresponding non-CPP cargo peptide.

As to YGRKKRRQQRRRKGTCAGWMA [CPP-adiponectin], in test [1] (setting [6]), the “decrease in circulating concentration of adiponectin” value is reported as around 14%. In test [1], the “HMW form of adiponectin in serum” value is “significantly decreased”. The “amount of adiponectin bound to ERp44 in mouse adipose tissue” value in test [2] is recorded as “significantly decreased”. In the test with 3T3-L1 adipocytes (setting [7]), the intracellular adiponectin levels entry is given as “increased”. In the test on 3T3-L1 adipocytes (setting [8]), the “reduction of total amount of adiponectin in the conditioned media” value is around 16%. In addition, the “oligomeric composition of adiponectin in the cell lysate” value in the test with 3T3-L1 adipocytes (200 nM, cell lysate) is on record as “shifted towards the trimer”. Moreover, in the test on 3T3-L1 adipocytes (200 nM, conditioned media), the “HMW adiponectin level in conditioned media” value (from here on “HMW adiponectin level”) is “significantly reduced” and the “trimeric adiponectin level in conditioned media” value (“trimeric adiponectin level” below) is on record as “significantly reduced”.

As to YGRKKKRRQQRRRGTCY [CPP-M1], the “increase in circulating concentration of adiponectin” value in test [1] (setting [6]) is on record as around 28%. Moreover, the “HMW form of adiponectin in serum” value in test [1] was “increased”. Also, in the test with 3T3-L1 adipocytes (setting [7]), the intracellular adiponectin levels result is given as “decreased”. Also, the “increase in total amount of adiponectin secreted in the media” value with 3T3-L1 adipocytes (setting [8]) was around 45%. Moreover, in the test with 3T3-L1 adipocytes (200 nM, cell lysate), the “amount of HMW adiponectin in the cell lysate” value is “significantly increased” and the “sub-population of the hexametric adiponectin in the cell lysate” value is listed as “decreased”. In the test with 3T3-L1 adipocytes (200 nM, conditioned media), the “HMW adiponectin level” value is listed as “significantly elevated”, the “hexamer adiponectin level in conditioned media” value was “significantly elevated” and the “trimeric adiponectin level” value was “significantly elevated”. Further, in test [3], the “HFD-induced insulin resistance (calculated HOMA-IR)” value is given as “significantly blocked”, the “HFD-induced reduction of adiponectin concentrations in serum” value is given as “prevented the reduction”, the circulating cholesterol levels entry is “significantly reduced” and the circulating triglyceride levels result is given as “significantly reduced”. For the same molecule, in test [3], the “lipid (triglyceride) accumulation in livers” value was “attenuated” and the “HFD-induced hyperglycemia (fasting glucose levels)” value is listed as “significantly blocked”. In test [3] (compared to M1 cargo peptide), the “body fat mass under HFD” value was “significantly decreased”.

In the case of YGRKKKRRQQRRRDTGGTCY [CPP-M2], the “increase in circulating concentration of adiponectin” value in test [1] (setting [6]) is recorded as around 34%. The “HMW form of adiponectin in serum” value in test [1] is “increased”. Moreover, the intracellular adiponectin levels entry in the test with 3T3-L1 adipocytes (setting [7]) is listed as “decreased”. Moreover, the “increase in total amount of adiponectin secreted in the media” value in the test with 3T3-L1 adipocytes (setting [8]) is around 53%. In the test on 3T3-L1 adipocytes (200 nM, cell lysate), the “amount of HMW adiponectin in the cell lysate” value is given as “significantly increased” and the “sub-population of the hexametric adiponectin in the cell lysate” value is “decreased”. Moreover, in the test on 3T3-L1 adipocytes (200 nM, conditioned media), the “HMW adiponectin level” value is recorded as “significantly elevated”, the “hexamer adiponectin level in conditioned media” value was “significantly elevated” and the “trimeric adiponectin level” value is “significantly elevated”. Moreover, in test [3], the “HFD-induced insulin resistance (calculated HOMA-IR)” value is on record as “significantly blocked”, the “HFD-induced reduction of adiponectin concentrations in serum” value is given as “prevented the reduction”, the circulating cholesterol levels result was “significantly reduced” and the circulating triglyceride levels result is “significantly reduced”. In addition, in test [3], the “lipid (triglyceride) accumulation in livers” value is on record as “attenuated” and the “HFD-induced hyperglycemia (fasting glucose levels)” value was “significantly blocked”.

B1: M2 (IgM-derived cargo peptide DTGGTCY) (peptide)
peptide: DTGGTCY
For the molecule B1, in test [4], the binding result was “binds”.

B2: M1 (IgM-derived cargo peptide GTCY) (peptide)
peptide: GTCY
With B2, the binding result in test [5] is listed as “binds”.

B3: Adiponectin peptide (adiponectin-derived cargo peptide KGTCAGWMA) (peptide)
peptide: KGTCAGWMA
notes: also called adiponectin derived peptide
With B3, the binding result in test [5] is listed as “binds”.

Source of the values: patent US20200223894A1, “PEPTIDES FOR THE TREATMENT OF CONDITIONS ASSOCIATED WITH ADIPONECTIN DYSFUNCTION” (AUCKLAND UNISERVICES LIMITED, priority 2017, published 2020).
